Laboratory results: patent publication US20260078118A1, “COMBINED PRODUCT, SALT AND USE THEREOF” (SHANGHAI HENLIUS BIOTECH, INC., priority 2023, published 2026)
Structures can show the parent of a compound that is named as a salt.

Columns and labels:
[1] = test system: mice subjected to intragastric administration of α-naphthylisothiocyanate (ANIT); assay: ANIT mouse model, serological indicators; type: in vivo, C57BL/6 mice; conditions: vs. ANIT model group
Description: In order to verify the technical effects observed in the in vitro cell models, this experiment further examined the effects of compound Y and compound B on serological indicators in a mouse model subjected to intragastric administration of α-naphthylisothiocyanate (ANIT). Fifty-four female C57BL/6 mice aged 6-8 weeks were purchased from Shanghai Lingchang Biotechnology Co., Ltd. After one week of acclimatization, the mice were divided into 6 groups according to body weight, and this time point was designated as day −3. The test compound in each group was intragastrically administered starting from day −3. After three consecutive days of administration, modeling was performed by intragastric administration of ANIT at a dose of 50 mg/kg, and this time point was designated as day 0. During modeling, the healthy group (control) received a single oral dose of pure olive oil. Throughout the entire experimental period, both the healthy group (control) and the model group (ANIT) were given corresponding doses of vehicle (sodium carboxymethylcellulose) according to body weight. The mice were observed daily for health status and body weight changes. The experimental endpoint was day 2; prior to euthanasia, the mice were fasted for 6 h, and cardiac blood collection and liver sample acquisition were performed under anesthesia. The primary indicators were serological changes including AST, ALT, and ALP.
In order to verify the technical effects observed in the DDC model, this experiment further examined the effects of various compound combinations on serological indicators in a mouse model subjected to intragastric administration of α-naphthylisothiocyanate (ANIT). Fifty-six female C57BL/6 mice aged 6-8 weeks were purchased from Shanghai Lingchang Biotechnology Co., Ltd. After one week of acclimatization, the mice were divided into 7 groups according to body weight, and this time point was designated as day −3. The compound in each group was intragastrically administered starting from day −3. After three consecutive days of administration, modeling was performed by intragastric administration of ANIT at a dose of 50 mg/kg, and this time point was designated as day 0. The normal control group received a single oral dose of pure olive oil. Throughout the entire experimental period, both the healthy group (control) and the model group (ANIT) were given corresponding doses of vehicle (sodium carboxymethylcellulose) according to body weight. The mice were observed daily for health status and body weight changes. The experimental endpoint was day 2; prior to euthanasia, the mice were fasted for 6 h, and cardiac blood collection and liver sample acquisition were performed under anesthesia. The primary indicators were serological changes including AST, ALT, and ALP.

[2] = test system: mice fed with feed containing 0.1% DDC (DDC model); assay: DDC model, serological indicators and liver pathology; type: in vivo, C57BL/6 mice; conditions: Example 12, FIG. 17; U 100 mg/kg, combinations 100+100 mg/kg; vs. DDC model group
Description: Seventy-one male C57BL/6 mice aged 10 weeks were purchased from Shanghai Lingchang Biotechnology Co., Ltd. […] The compound in each group was intragastrically administered starting from day 0. Throughout the entire experimental period, both the healthy group (control) and the model group (DDC) were given corresponding doses of vehicle (sodium carboxymethylcellulose) according to body weight. The mice were observed daily for health status and body weight changes. The experimental endpoint was day 20. Prior to euthanasia, the mice were fasted for 6 h, and cardiac blood collection and liver sample acquisition were performed under anesthesia. The primary indicators were serological changes including AST, ALT, and ALP; pathological analysis was performed by HE staining. The specific grouping and the administration dose for each group are shown in the table below: Fifty-six male C57BL/6 mice aged 10 weeks were purchased from Shanghai Lingchang Biotechnology Co., Ltd. […] The compound in each group was intragastrically administered starting from day 0. Throughout the entire experimental period, both the healthy group (control) and the model group (DDC) were given corresponding doses of vehicle (sodium carboxymethylcellulose) according to body weight. The mice were observed daily for health status and body weight changes. The experimental endpoint was day 20. […]

HepG2 cells = assay: Protection of hepatocytes from deoxycholic acid (DCA)-induced cell damage, CCK8 viability; type: cell-based; conditions: then 1 mM DCA 4 h; for cell viability: compound N 50 μM for 24 h, vs. DCA-treated group
Description: (§1) First, 2.5×10^4 HepG2 cells were seeded in a 96-well flat-bottom plate with an MEM medium containing 10% fetal bovine serum. The cells were cultured overnight in an incubator at 37° C. with 5% CO2 for adhesion. Subsequently, various compounds at corresponding concentrations (compound Y: 100 μM; compound B: 100 μM; compound N: 50 μM) were incubated with the HepG2 cells in the incubator at 37° C. with 5% CO2 for 24 h. All groups, except for the blank control group, were treated with 1 mM deoxycholic acid (DCA, a secondary bile acid that can directly induce hepatocyte damage) for 4 h. All groups were supplemented with 10 μL of CCK8 reagent and incubated under the incubator conditions for 1 h. The absorbance was measured at a wavelength of 450 nm using a microplate reader, which indirectly reflected the number of viable cells. All data were calculated and presented as percentages relative to the absorbance measured in the blank control group not treated with deoxycholic acid.
as §1, with “Y: 50” for “Y: 100 μM; compound B: 100”, “N: 50 µM; compound combination Y+N: 50 μM+50 μM (molar ratio: 1:1); YN salt:” for “N:”, “h. Then, the” for “h. The”
as §1, with “µM;” for “μM; compound B: 100 μM;”, “µM; compound combination Y+N: 100 μM+50 μM (molar ratio: 2:1))” for “μM)”
First, 2.5×10^4 HepG2 cells were seeded in a 96-well flat-bottom plate with an MEM medium containing 10% fetal bovine serum. The cells were cultured overnight in an incubator at 37° C. with 5% CO2 for adhesion. […] The absorbance was measured at a wavelength of 450 nm using a microplate reader, which indirectly reflected the number of viable cells. […]

CD4-positive T cells = assay: Proliferation of CD4-positive T cells from Anti-CD3/CD28-stimulated PBMCs (CellTrace, flow cytometry); type: cell-based, human; conditions: FIG. 5; compound Y 200 μM, Y+N 200 μM+100 μM, 72 h; vs. DMSO control
Description: (§2) First, a certain amount of human peripheral blood mononuclear cells (PBMCs) were incubated with 5 μM CellTrace cell proliferation assay reagent in an incubator at 37° C. with 5% CO2 in the dark for 20 min. Then, 1.5×10^5 CellTrace-stained PBMCs were seeded in a 96-well U-bottom plate and treated with Anti-CD3/CD28 antibody-coupled magnetic beads at a ratio of 1:1 (cell count:magnetic bead count) to induce differentiation into T cells. Subsequently, various compounds at corresponding concentrations (compound Y: 200 µM; compound N: 100 µM; compound combination Y+N: 200 μM+100 μM; control group: UDCA (100 μM)) were co-incubated with the above-treated cells in the incubator at 37° C. with 5% CO2 for 72 h, followed by analysis by a flow cytometer. Specifically, the test cells were first treated with a Live/dead dye (633 nm, 1:1000 dilution) at 4° C. for 30 min to distinguish dead cells from live cells. Subsequently, the above test cells were simultaneously co-incubated with wavelength dyes anti-CD45-PerCPCy5.5, anti-CD4-AF700, and anti-CD8-FITC at room temperature for 30 min to distinguish different series of T cells (CD4-positive T cells and CD8-positive T cells). After appropriate washing, the above-stained cells were analyzed by a flow cytometer at different wavelengths. […] Proliferation of CD4-positive and CD8-positive T cells was determined by the fluorescence of CellTrace dye.

CD8-positive T cells = assay: Proliferation of CD8-positive T cells from Anti-CD3/CD28-stimulated PBMCs (CellTrace, flow cytometry); type: cell-based, human; conditions: FIG. 6; compound Y 200 μM, Y+N 200 μM+100 μM, 72 h; vs. DMSO control
Description: as §2

[3] = Example 4, FIG. 1, compound Y 100 μM, compound B 100 μM
[4] = Example 9, FIG. 9, 100 and 50 mg/kg intragastric twice daily

C[C@H](CCC(=O)O)[C@H]1CC[C@H]2[C@@H]3[C@@H](O)C[C@@H]4C[C@H](O)CC[C@]4(C)[C@H]3CC[C@]12C [U, Ursodeoxycholic acid]
serum alkaline phosphatase (ALP) levels ([1]; Example 10, FIG. 10, U 100 mg/kg intragastric twice daily): reduced serum alkaline phosphatase (ALP) levels | serum ALT levels ([1]; Example 10, FIG. 11, U 100 mg/kg, Y+N 100+50 mg/kg intragastric twice daily): significantly increased serum ALT levels | serum AST levels ([1]; Example 10, FIG. 12, U 100 mg/kg, Y+N 100+50 mg/kg intragastric twice daily): significantly increased serum AST levels | bile pigment-positive area of the liver [2]: significant reduction in the bile pigment-positive area of the liver

COc1ccc2cc3[n+](cc2c1OC)CCc1cc2c(cc1-3)OCO2 [Compound B, Berberine hydrochloride]
cell viability (HepG2 cells; [3]): highly significant increase in cell viability | serum alkaline phosphatase (ALP) levels ([1]; Example 9, FIG. 7, 100 and 50 mg/kg intragastric twice daily): increased serum ALP levels in a dose-dependent manner | serum ALT levels ([1]; Example 9, FIG. 8, 100 and 50 mg/kg intragastric twice daily): increased serum ALT levels in a dose-dependent manner | serum AST levels [1, 4]: increased serum AST levels in a dose-dependent manner

COc1cc2cc3[n+](cc2cc1OC)CCc1cc2c(cc1-3)OCO2 [Compound Y]
cell viability (HepG2 cells; [3]): highly significant increase in cell viability | cell viability (percentage relative to blank control) (HepG2 cells; Example 5, FIG. 2, compound Y 50 μM, Y+N 50 μM+50 μM (1:1), YN salt 50 μM for 24 h): 72% | proliferation of CD4-positive T cells (CD4-positive T cells): significantly inhibited | proliferation of CD8-positive T cells (CD8-positive T cells): significantly inhibited | serum alkaline phosphatase (ALP) levels ([1]; Example 9, FIG. 7, 50 mg/kg intragastric twice daily, day -3 to day 2): reduced serum ALP levels | serum alkaline phosphatase (ALP) levels ([1]; Example 9, FIG. 7, 100 mg/kg intragastric twice daily, day -3 to day 2): significantly reduced serum alkaline phosphatase (ALP) levels | serum ALT levels ([1]; Example 9, FIG. 8, 50 mg/kg intragastric twice daily): reduced serum ALT levels | serum ALT levels ([1]; Example 9, FIG. 8, 100 mg/kg intragastric twice daily): significantly reduced serum ALT levels | serum AST levels [1, 4]: reduced serum AST levels in a dose-dependent manner

C[C@H](CC(=O)O)[C@H]1CC[C@H]2[C@@H]3[C@@H](O)C[C@@H]4C[C@H](O)CC[C@]4(C)[C@H]3CC[C@]12C [Compound N, 24-Norursodeoxycholic acid]
cell viability (HepG2 cells; [3]): trend toward improved cell viability, but the trend was not significant | cell viability (HepG2 cells; Example 5, FIG. 2): trend toward improved cell viability, but the trend was not significant
